The target in test [1] is Kappa-type opioid receptor (Homo sapiens, UniProt P41145). As to the kind of experiment: Inhibition of [3H]diprenorphine binding to Opioid receptor kappa 1.
Test [2] addresses Delta-type opioid receptor (Homo sapiens, UniProt P41143). Nature of the test: Inhibition of [3H]- diprenorphine binding to Opioid receptor delta 1.
The target of test [3] is Mu-type opioid receptor (Homo sapiens, UniProt P35372). As to the kind of experiment: Inhibition of [3H]- diprenorphine binding to Opioid receptor mu 1 (83 fmol/mg protein) stably expressed in membranes from CHO cells. Type of test: cell membranes.
Sequence of Mu-type opioid receptor (P35372 whole entry): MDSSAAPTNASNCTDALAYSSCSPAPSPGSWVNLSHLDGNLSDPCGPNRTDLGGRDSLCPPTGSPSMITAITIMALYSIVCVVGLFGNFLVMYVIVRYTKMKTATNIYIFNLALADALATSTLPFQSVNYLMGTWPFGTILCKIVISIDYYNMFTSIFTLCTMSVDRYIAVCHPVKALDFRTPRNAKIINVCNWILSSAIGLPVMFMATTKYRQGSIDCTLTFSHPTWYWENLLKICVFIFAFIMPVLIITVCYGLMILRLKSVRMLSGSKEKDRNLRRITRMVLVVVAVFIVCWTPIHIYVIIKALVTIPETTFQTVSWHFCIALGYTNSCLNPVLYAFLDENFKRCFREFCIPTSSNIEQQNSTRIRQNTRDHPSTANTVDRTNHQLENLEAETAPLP

pKi: −log10 of the molar value.

Sequence of Delta-type opioid receptor (P41143 whole entry): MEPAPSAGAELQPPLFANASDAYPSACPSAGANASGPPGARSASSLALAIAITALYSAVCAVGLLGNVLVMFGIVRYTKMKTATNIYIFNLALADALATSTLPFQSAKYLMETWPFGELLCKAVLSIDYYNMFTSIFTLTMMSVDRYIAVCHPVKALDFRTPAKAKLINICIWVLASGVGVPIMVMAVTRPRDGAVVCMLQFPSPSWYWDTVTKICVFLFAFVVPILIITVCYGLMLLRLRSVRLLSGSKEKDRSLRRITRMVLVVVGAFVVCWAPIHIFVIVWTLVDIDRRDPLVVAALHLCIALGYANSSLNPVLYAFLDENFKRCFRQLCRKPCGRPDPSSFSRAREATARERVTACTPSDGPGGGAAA
Sequence of Kappa-type opioid receptor (P41145 whole entry): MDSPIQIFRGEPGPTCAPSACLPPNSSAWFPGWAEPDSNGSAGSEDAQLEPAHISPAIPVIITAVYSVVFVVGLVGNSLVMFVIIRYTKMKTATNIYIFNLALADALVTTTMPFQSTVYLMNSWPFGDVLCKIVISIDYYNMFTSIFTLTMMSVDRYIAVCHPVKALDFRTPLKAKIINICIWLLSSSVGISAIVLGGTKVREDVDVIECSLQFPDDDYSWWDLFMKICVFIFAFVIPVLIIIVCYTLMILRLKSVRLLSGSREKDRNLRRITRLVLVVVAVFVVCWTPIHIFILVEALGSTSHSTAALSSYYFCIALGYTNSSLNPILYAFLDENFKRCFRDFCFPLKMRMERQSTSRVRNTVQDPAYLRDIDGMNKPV

What is called pKi is −log10 of the Ki, conventionally taken in molar units. For `O=Cc1ccc(C(=O)NCC(=O)N[C@@H]2CC[C@@]3(O)[C@H]4Cc5ccc(O)c6c5C3(CCN4CC3CC3)C2O6)cc1C=O` (stereo partly drawn), the negative-log Ki (pKi) in test [1] is 9.15; in test [2], 8.59; in test [3], 9.35.
